Assay results: patent publication US9757408B2 (Hayashibara Co., Ltd., priority 2010, dated 2017)
Marks after values point to notes of the source that are not given here.

Experiments:
[1] = system: mouse intraperitoneal macrophages; experiment: Cell viability of mouse intraperitoneal macrophages, AlamarBlue (Experiment 2); assay type: cell-based; conditions: LPS 2 μg/mL, IFN-γ 10 IU/mL, control = 100%
[2] = system: TNF-α in serum of mice administered with LPS; experiment: Serum TNF-α in LPS-administered mice, ANO i.v. (Experiment 7); assay type: in vivo, BALB/c mice; conditions: LPS 18 mg/kg i.p., serum two hours after LPS
Protocol: More specifically, 18 BALB/c female mice, 9-week-old, commercialized by Japan Charles River, Tokyo, Japan, were randomly divided into three groups, six heads each. An LPS specimen derived from E. coli (055:B5), commercialized by Sigma-Aldrich Corporation, St. Louis, Mo. USA, was dissolved in physiological saline and intraperitoneally administered to all the 6 mice in respective three groups at a dose of 18 mg/kg body weight of LPS (Experiment groups 1 to 3). […] To the six mice of the remaining one group was intravenously administered PBS in a liquid volume of 0.2 mL/head simultaneously with the administration of LPS (Experiment group 1).
For the mice in each group, they were collected blood at two hours after the LPS administration, followed by assaying the level of TNF-α, IL-6, IL-10, and IL-12 in each serum and averaging the data for each group. For the assay of the level of TNF-α, the same ELISA as in Experiment 2 was used and for the assay of the level of IL-6, the same ELISA as in Experiment 3 was used. […]

[3] = system: mice with bacterial shock induced by LPS; experiment: LPS bacterial shock mice, survival, oral administration (Experiment 10); assay type: in vivo, BALB/c mice; conditions: LPS 18 mg/kg i.p.
[4] = system: skin of volunteers irradiated with ultraviolet rays; experiment: Volunteer test of creams: pigmentation (visual score, melanin index) after ultraviolet rays; assay type: in vivo, human; conditions: cream thrice a day for 28 days
Protocol: Melanin index was measured on “CM-700d”, a spectrophotometer commercialized by Konica Minolta Holdings, Inc., Tokyo, Japan.
In was confirmed that there were no spots and wounds in the inside of the left upper arm in each volunteer. On the day of initiating the test, four sites in the test part of each volunteer were irradiated with 1.5-times of the minimum erythemogenic dose of ultraviolet rays (UVB). The area of the irradiated site was in the range of 1×1 cm applied with each test sample. […]
From the day of initiating the irradiation of ultraviolet rays until seven days after the initiation, the test parts were visually observed and photographed by a digital camera every day, and the day, on which the erythema in the part irradiated with ultraviolet rays become unobserved, was confirmed and the days until the unobserved day for each creams were averaged and shown in Table 26. At 24 hours after the irradiation of ultraviolet rays, the degree of erythema in the part applied with each cream was scored based on the three grades of “strong (2)”, “no difference (0)”, and “weak (−2)” compared to the part applied with Cream 3, summed up the scores for each cream, and averaged. […] On 28 days after initiating the irradiation of ultraviolet rays, visual judgement on the part irradiated with ultraviolet rays and the melanin index were measured to confirm the degree of pigmentation. […]

[5] = Body weight of picryl chloride-sensitized mice applied with gels (Experiment 16); conditions: picryl chloride-sensitized NC/Nga mice, throughout the test period
Protocol: The eight mice in each five groups were sensitized (may be simply called “sensitization”, hereinafter) with picryl chloride (Tokyo Chemical Industry Co., Ltd., Tokyo, Japan) in such a manner of dropping a solution, which had been dissolved in a mixture solution of ethanol and acetone in a volume ratio of 4:1 at a concentration of 5%, on the shaved abdominal skin of the mice and on four footpads in a total volume of 150 μL/mouse, and spreading the solution over the abdominal skin and the foot pads by using a micropipette similarly as above.
Throughout the test period, the mice were weighed once a week. The judgement of the conditions of skin inflammation was conducted twice a week every Tuesday and Friday from the 3rd induction for the degrees of four items of red flare/bleeding, edema (swelling of earflap), chafing/loss of tissue, and the formation of scar tissue/drying, and scored based on the criterion of four grades shown in Table 17; “0” (symptomless), “1” (mild), “2” (moderate), and “3” (severe). The total scores of each evaluation items for each group were averaged for use as a skin score.

| SMILES | Cell viability ([1]; ANO 0.006 μM) [%] | Cell viability ([1]; ANO 0.031 μM) [%] | Cell viability ([1]; ANO 0.063 μM) [%] | Cell viability ([1]; ANO 0.313 μM) [%] | TNF-α Concentration ([2]; ANO 68 mg/kg i.v.) | TNF-α Concentration ([2]; ANO 135 mg/kg i.v.) | Survival rate (%) of mice, 22 Hours ([3]; oral 400 mg/kg (200 × 2 shots)) [%] | Survival rate (%) of mice, 31 Hours ([3]; oral 400 mg/kg (200 × 2 shots)) [%] | Survival rate (%) of mice, 46 Hours ([3]; oral 400 mg/kg (200 × 2 shots)) [%] | Survival rate (%) of mice, 55 Hours ([3]; oral 400 mg/kg (200 × 2 shots)) [%] | Survival rate (%) of mice, 72 Hours ([3]; oral 400 mg/kg (200 × 2 shots)) [%] | Survival rate (%) of mice, 79 Hours ([3]; oral 400 mg/kg (200 × 2 shots)) [%] | Survival rate (%) of mice, 22 Hours ([3]; oral 600 mg/kg (200 × 3 shots)) [%] | Survival rate (%) of mice, 31 Hours ([3]; oral 600 mg/kg (200 × 3 shots)) [%] | Survival rate (%) of mice, 46 Hours ([3]; oral 600 mg/kg (200 × 3 shots)) [%] | Survival rate (%) of mice, 55 Hours ([3]; oral 600 mg/kg (200 × 3 shots)) [%] | Survival rate (%) of mice, 72 Hours ([3]; oral 600 mg/kg (200 × 3 shots)) [%] | Survival rate (%) of mice, 79 Hours ([3]; oral 600 mg/kg (200 × 3 shots)) [%] | safeness when applied to the skin (red flare, eczema) [4] | body weight of mice applied with the gel [5] |
| --- | --- | --- | --- | --- | --- | --- | --- | --- | --- | --- | --- | --- | --- | --- | --- | --- | --- | --- | --- | --- |
| Nc1c2ncn([C@@H]3O[C@H](CO)[C@@H](O)[C@H]3O)c2nc[n+]1[O-] [ANO, adenosine N1-oxide] | 100 | 100 | 100 | 100 | 109** pg/mL | 46** pg/mL | 75 | 75 | 50 | 50 | 100 | 50 | 87.5 | 87.5 | 87.5 | 87.5 | 100 | 75 | induced no red flare, eczema, etc. |  |
| OC[C@H]1O[C@@H](n2cnc3c(O)ncnc32)[C@H](O)[C@@H]1O [IN, inosine] |  |  |  |  |  |  |  |  |  |  |  |  |  |  |  |  |  |  |  | reduction of increasing rate of their body weights |
